Assays:
[1] = biological target: T1, human p70S6 kinase (p70S6K, kinase domain residues 1-421, T412E mutation) (Homo sapiens, UniProt P23443, T412E); test: p70S6 kinase assay, Luciferase-Coupled Chemiluminescent Kinase assay (LCCA); type: biochemical; settings: 5 μM ATP, 12 nM p70S6K; read-out: p70S6K inhibition IC50
T1 construct: human p70S6 kinase domainresidues 1-421, containing a T412E mutation; made in house
Procedure: (§1) Kinase activity and compound inhibition are investigated using one or more of the three assay formats described below. The ATP concentrations for each assay are selected to be close to the Michaelis-Menten constant (KM) for each individual kinase. Dose-response experiments are performed at 10 different inhibitor concentrations in a 384-well plate format. The data are fitted to four-parameter equation (2) below; where Y is the observed signal, X is the inhibitor concentration, Min is the background signal in the absence of enzyme (0% enzyme activity), Max is the signal in the absence of inhibitor (100% enzyme activity), IC50 is the inhibitor concentration at 50% enzyme inhibition and H represents the empirical Hill's slope to measure the cooperativity. Typically H is close to unity. Y=Min+(Max−Min)/(1+(X/IC50)^H) Equation (2) p70S6 Kinase Assay
Biochemical activity of p70S6 kinase was assessed using a Luciferase-Coupled Chemiluminescent Kinase assay (LCCA) format. Kinase activity was measured as the percent ATP remaining following the kinase reaction. Remaining ATP was detected by luciferase-luciferin-coupled chemiluminescence. Specifically, the reaction was initiated by mixing test compounds, 5 μM ATP, 5 μM RRRLSSLRA peptide and 12 nM p70S6K (baculovirus expressed human p70S6 kinase domainresidues 1-421, containing a T412E mutation) in a 20 uL assay buffer (20 mM Tris-HCL pH 7.5, 10 mM MgCl2, 0.02% Triton X-100, 100 mM DTT, 2 mM MnCl2). The mixture is incubated at ambient temperature for 2 hours after which 20 μL luciferase-luciferin mix is added and the chemiluminescent signal read using a Wallac Victor^2 reader. The luciferase-luciferin mix consists of 50 mM HEPES, pH 7.8, 8.5 μg/mL oxalic acid (pH 7.8), 5 (or 50) mM DTT, 0.4% Triton X-100, 0.25 mg/mL coenzyme A, 63 uM AMP, 28 μg/mL luciferin and 40,000 units/mL luciferase.

[2] = biological target: T2, human Akt1 kinase (kinase domain residues R144-A480, activated with PDK1) (Homo sapiens, UniProt P31749); test: Akt1 kinase assay, Luciferase-Coupled Chemiluminescent Kinase assay (LCCA); type: biochemical; settings: 1 μM ATP, 1.3 nM Akt1; read-out: Akt-1 inhibition IC50
T2 construct: made in house
Procedure: as §1
Biochemical activity of Akt1 kinase was assessed using a Luciferase-Coupled Chemiluminescent Kinase assay (LCCA) format. Kinase activity was measured as the percent ATP remaining following the kinase reaction. Remaining ATP was detected by luciferase-luciferin-coupled chemiluminescence. Specifically, the reaction was initiated by mixing test compounds, 1 μM ATP, 5 μM crosstide peptide and 1.3 nM Akt1 (baculovirus expressed human Akt1 kinase domain residues R144-A480, activated with PDK1) in a 20 uL assay buffer (20 mM Tris-HCL pH 7.5, 10 mM MgCl2, 0.01% Triton X-100, 1 mM DTT, 3 mM MnCl2). The mixture is incubated at ambient temperature for 3 hours after which 20 μL luciferase-luciferin mix is added and the chemiluminescent signal read using a Wallac Victor2 reader. The luciferase-luciferin mix consists of 50 mM HEPES, pH 7.8, 8.5 μg/mL oxalic acid (pH 7.8), 5 (or 50) mM DTT, 0.4% Triton X-100, 0.25 mg/mL coenzyme A, 63 uM AMP, 28 μg/mL luciferin and 40,000 units/mL luciferase.

T2 sequence (P31749 144-480): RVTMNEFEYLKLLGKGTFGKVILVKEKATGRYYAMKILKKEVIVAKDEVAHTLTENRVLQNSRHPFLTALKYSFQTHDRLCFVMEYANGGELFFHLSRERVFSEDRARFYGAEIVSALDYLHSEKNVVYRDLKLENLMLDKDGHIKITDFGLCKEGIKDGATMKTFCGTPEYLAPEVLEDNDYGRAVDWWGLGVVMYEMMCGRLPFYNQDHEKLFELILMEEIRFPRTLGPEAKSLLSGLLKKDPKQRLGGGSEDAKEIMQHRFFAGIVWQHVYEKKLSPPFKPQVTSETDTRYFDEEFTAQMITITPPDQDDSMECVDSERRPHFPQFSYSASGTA
T1 sequence (P23443 1-421 T412E): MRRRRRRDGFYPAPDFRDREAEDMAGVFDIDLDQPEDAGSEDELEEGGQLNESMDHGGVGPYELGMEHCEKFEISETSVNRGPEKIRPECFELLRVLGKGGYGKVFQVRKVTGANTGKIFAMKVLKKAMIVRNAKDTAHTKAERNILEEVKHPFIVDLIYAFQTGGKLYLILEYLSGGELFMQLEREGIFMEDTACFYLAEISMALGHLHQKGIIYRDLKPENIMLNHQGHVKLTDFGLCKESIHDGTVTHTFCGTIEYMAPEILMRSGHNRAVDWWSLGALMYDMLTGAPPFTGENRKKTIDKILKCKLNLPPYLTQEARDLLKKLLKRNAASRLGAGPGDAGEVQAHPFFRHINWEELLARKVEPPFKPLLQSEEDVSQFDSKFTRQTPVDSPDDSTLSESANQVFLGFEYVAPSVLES

Compound | IC50 [1] | IC50 [2]
CN(C)CCO[C@H](c1ccc(Cl)cc1)C1CCN(c2ncnc3[nH]nc(Br)c23)CC1 [Entry 89, 2-{[(S)-[1-(3-bromo-1H-pyrazolo[3,4-d]pyrimidin-4-yl)piperidin-4-yl](4-chlorophenyl)methyl]oxy}-N,N-dimethylethanamine] | < 50 nM | < 50 nM
CN(C)CCO[C@@H](c1ccc(Cl)cc1)C1CCN(c2ncnc3[nH]nc(Br)c23)CC1 [Entry 86, 2-{[(R)-[1-(3-bromo-1H-pyrazolo[3,4-d]pyrimidin-4-yl)piperidin-4-yl](4-chlorophenyl)methyl]oxy}-N,N-dimethylethanamine] | < 50 nM | < 50 nM
O=[N+]([O-])c1cc(CN2CCN(c3ncnc4[nH]nc(Br)c34)CC2)ccc1Oc1ccc(Cl)cc1 [Entry 84, 3-bromo-4-[4-({4-[(4-chlorophenyl)oxy]-3-nitrophenyl}methyl)piperazin-1-yl]-1H-pyrazolo[3,4-d]pyrimidine] | > 2000 nM | > 2000 nM
CN(C)CCOC(=O)N(c1ccc(Cl)cc1)C1CCN(c2ncnc3[nH]nc(Br)c23)CC1 [Entry 15, 2-(dimethylamino)ethyl [1-(3-bromo-1H-pyrazolo[3,4-d]pyrimidin-4-yl)piperidin-4-yl](4-chlorophenyl)carbamate] | < 50 nM | < 50 nM
CN(C)CCNC(=O)C(=O)N(c1ccc(Cl)cc1)C1CCN(c2ncnc3[nH]nc(Br)c23)CC1 [Entry 28, N-[1-(3-bromo-1H-pyrazolo[3,4-d]pyrimidin-4-yl)piperidin-4-yl]-N-(4-chlorophenyl)-N′-[2-(dimethylamino)ethyl]ethanediamide] | < 50 nM | < 50 nM
CCN(CC)CCNC(c1ccc(Cl)cc1)C1CCN(c2ncnc3[nH]nc(Br)c23)CC1 (centres unmarked) [Entry 6, N′-[[1-(3-bromo-1H-pyrazolo[3,4-d]pyrimidin-4-yl)piperidin-4-yl](4-chlorophenyl)methyl]-N,N-diethylethane-1,2-diamine] | < 50 nM | < 50 nM
Clc1ccc([C@H](OCCN2CCCC2)C2CCN(c3ncnc4[nH]nc(Br)c34)CC2)cc1 [Entry 90, 3-bromo-4-(4-{(R)-(4-chlorophenyl)[(2-pyrrolidin-1-ylethyl)oxy]methyl}piperidin-1-yl)-1H-pyrazolo[3,4-d]pyrimidine] | < 50 nM | < 50 nM
O=C(c1ccc(F)cc1)C1CCN(c2ncnc3[nH]nc(Br)c23)CC1 [Entry 20, [1-(3-bromo-1H-pyrazolo[3,4-d]pyrimidin-4-yl)piperidin-4-yl](4-fluorophenyl)methanone] | < 50 nM | < 50 nM
Fc1cc(C(F)(F)F)ccc1CN1CCN(c2ncnc3[nH]nc(Br)c23)CC1 [Entry 23, 3-bromo-4-(4-{[2-fluoro-4-(trifluoromethyl)phenyl]methyl}piperazin-1-yl)-1H-pyrazolo[3,4-d]pyrimidine] | < 50 nM | 50 to 500 nM
CN(Cc1ccccn1)C(c1ccc(F)cc1)C1CCN(c2ncnc3[nH]nc(Br)c23)CC1 (centres unmarked) [Entry 97, 1-[1-(3-bromo-1H-pyrazolo[3,4-d]pyrimidin-4-yl)piperidin-4-yl]-1-(4-fluorophenyl)-N-methyl-N-(pyridin-2-ylmethyl)methanamine] | 50 to 500 nM | 500 to 2000 nM
Clc1ccc(OC2CCN(c3ncnc4[nH]nc(Br)c34)CC2)cc1 [Entry 101, 3-bromo-4-{4-[(4-chlorophenyl)oxy]piperidin-1-yl}-1H-pyrazolo[3,4-d]pyrimidine] | 50 to 500 nM | 500 to 2000 nM
CCc1n[nH]c2ncnc(N3CCC([C@@H](OCCN(C)C)c4ccc(Cl)cc4)CC3)c12 [Entry 88, 2-({(R)-(4-chlorophenyl)[1-(3-ethyl-1H-pyrazolo[3,4-d]pyrimidin-4-yl)piperidin-4-yl]methyl}oxy)-N,N-dimethylethanamine] | < 50 nM | < 50 nM
CN(C)CCNC(=O)C(c1ccc(Cl)cc1)N1CCN(c2ncnc3[nH]nc(Br)c23)CC1=O (centres unmarked) [Entry 14, 2-[4-(3-bromo-1H-pyrazolo[3,4-d]pyrimidin-4-yl)-2-oxopiperazin-1-yl]-2-(4-chlorophenyl)-N-[2-(dimethylamino)ethyl]acetamide] | < 50 nM | < 50 nM
C=CCCC(=O)N(c1ccc(Cl)cc1)C1CCN(c2ncnc3[nH]nc(Br)c23)CC1 [Entry 35, N-[1-(3-bromo-1H-pyrazolo[3,4-d]pyrimidin-4-yl)piperidin-4-yl]-N-(4-chlorophenyl)pent-4-enamide] | < 50 nM | 50 to 500 nM
CN(C)CCNC(=O)C(c1ccc(Cl)cc1)N1CCN(c2ncnc3[nH]nc(Br)c23)CC1 (centres unmarked) [Entry 9, 2-[4-(3-bromo-1H-pyrazolo[3,4-d]pyrimidin-4-yl)piperazin-1-yl]-2-(4-chlorophenyl)-N-[2-(dimethylamino)ethyl]acetamide] | < 50 nM | < 50 nM
OC(c1ccc2cc[nH]c2c1)N1CCN(c2ncnc3[nH]nc(Br)c23)CC1 (centres unmarked) [Entry 99, [4-(3-bromo-1H-pyrazolo[3,4-d]pyrimidin-4-yl)piperazin-1-yl](1H-indol-6-yl)methanol] | 50 to 500 nM | 500 to 2000 nM
CCN(CC)CCCNC(=O)C1(Cc2ccc(Cl)cc2)CCN(c2ncnc3[nH]nc(Br)c23)CC1 [Entry 44, 1-(3-bromo-1H-pyrazolo[3,4-d]pyrimidin-4-yl)-4-[(4-chlorophenyl)methyl]-N-[3-(diethylamino)propyl]piperidine-4-carboxamide] | < 50 nM | 50 to 500 nM
Clc1ccc([C@H](OCCN2CCCCC2)C2CCN(c3ncnc4[nH]nc(Br)c34)CC2)cc1 [Entry 93, 3-bromo-4-(4-{(R)-(4-chlorophenyl)[(2-piperidin-1-ylethyl)oxy]methyl}piperidin-1-yl)-1H-pyrazolo[3,4-d]pyrimidine] | < 50 nM | < 50 nM
Clc1ccc(OC2CCN(c3ncnc4[nH]nc(Br)c34)CC2)c(NCCN2CCCC2)c1 [Entry 103, 2-{[1-(3-bromo-1H-pyrazolo[3,4-d]pyrimidin-4-yl)piperidin-4-yl]oxy}-5-chloro-N-(2-pyrrolidin-1-ylethyl)aniline] | 50 to 500 nM | 50 to 500 nM
OC(c1ccc(Cl)cc1)C1CCN(c2ncnc3[nH]nc(Br)c23)CC1 (centres unmarked) [Entry 1, [1-(3-bromo-1H-pyrazolo[3,4-d]pyrimidin-4-yl)piperidin-4-yl](4-chlorophenyl)methanol] | < 50 nM | < 50 nM
Clc1ccc([C@H](OCCN2CCOCC2)C2CCN(c3ncnc4[nH]nc(Br)c34)CC2)cc1 [Entry 95, 3-bromo-4-(4-{(R)-(4-chlorophenyl)[(2-morpholin-4-ylethyl)oxy]methyl}piperidin-1-yl)-1H-pyrazolo[3,4-d]pyrimidine] | < 50 nM | < 50 nM
CN(C)CCOC(c1ccc(F)cc1)C1CCN(c2ncnc3[nH]nc(Br)c23)CC1 (centres unmarked) [Entry 25, 2-{[[1-(3-bromo-1H-pyrazolo[3,4-d]pyrimidin-4-yl)piperidin-4-yl](4-fluorophenyl)methyl]oxy}-N,N-dimethylethanamine] | < 50 nM | < 50 nM
COC(=O)c1ccc(CN2CCN(c3ncnc4[nH]nc(Br)c34)CC2)cc1 [Entry 42, methyl 4-{[4-(3-bromo-1H-pyrazolo[3,4-d]pyrimidin-4-yl)piperazin-1-yl]methyl}benzoate] | < 50 nM | > 2000 nM
O=C1CN(c2ncnc3[nH]nc(Br)c23)CCN1Cc1ccc(Cl)cc1 [Entry 8, 4-(3-bromo-1H-pyrazolo[3,4-d]pyrimidin-4-yl)-1-[(4-chlorophenyl)methyl]piperazin-2-one] | < 50 nM | 50 to 500 nM
CN(C)CCOCC1CN(c2ncnc3[nH]nc(Br)c23)CCN1Cc1ccc(Cl)cc1 (centres unmarked) [Entry 83, 2-[({4-(3-bromo-1H-pyrazolo[3,4-d]pyrimidin-4-yl)-1-[(4-chlorophenyl)methyl]piperazin-2-yl}methyl)oxy]-N,N-dimethylethanamine] | > 2000 nM | > 2000 nM

Source: patent US7994172B2, “[1H-pyrazolo[3, 4-D]pyrimidin-4-yl]-piperidine or -piperazine compounds as serine-theoronine kinase modulators (P70s6k, Atk1 and Atk2) for the treatment of immunological, inflammatory and proliferative diseases” (Exelixis, Inc., priority 2004, dated 2011)
